Experiment: xn = mol fraction of the nth substance listed

C1CCC2=[NH+]CCCN2CC1.c1c[n-]cn1 + CCO
298.15 K, 100 kPa
Conditions	viscosity [mPa·s]
x1 = 0.0998	1.95
x1 = 0.1996	3.268
x1 = 0.2995	5.15
x1 = 0.3994	7.752
x1 = 0.4994	10.78
x1 = 0.5994	14.23
x1 = 0.6995	19.14
x1 = 0.7996	23.96
x1 = 0.8998	28.78

CC(=O)O + CCO
298.15 K, 101.33 kPa
Conditions	viscosity [mPa·s]
x2 = 0.0808	1.246
x2 = 0.2919	1.327
x2 = 0.3542	1.335
x2 = 0.5697	1.24
x2 = 0.6571	1.195
x2 = 0.75	1.15

CCC(=O)[O-].CC[NH+]1CCNCC1 + CCO
Conditions	viscosity [mPa·s]
298.15 K, 101 kPa, x2 = 0.3033	75.85

ClCCCl + CCO
viscosity [mPa·s], 101 kPa
Conditions	303.15 K	313.15 K	323.15 K
x1 = 0.1495	0.842	–	–
x1 = 0.3026	0.736	–	–
x1 = 0.4507	0.681	–	–
x1 = 0.6007	0.662	–	–
x1 = 0.752	0.659	–	–
x1 = 0.8706	0.659	–	–
x2 = 0.064	0.6974	0.6126	0.5529
x2 = 0.1215	0.6779	0.5938	0.5336
x2 = 0.2295	0.6654	0.5787	0.512
x2 = 0.3279	0.6668	0.5767	0.5115
x2 = 0.3912	0.6702	0.5806	0.5107
x2 = 0.4726	0.6873	0.5896	0.5161
x2 = 0.5989	0.7253	0.6178	0.536
x2 = 0.752	0.7907	0.6671	0.5723
x2 = 0.8819	0.8746	0.7374	0.628

ClCCl + CCO
303.15 K, 101.3 kPa
Conditions	viscosity [mPa·s]
x2 = 0.0625	0.395
x2 = 0.1074	0.398
x2 = 0.1915	0.4103
x2 = 0.2935	0.4387
x2 = 0.4162	0.4914
x2 = 0.5331	0.5595
x2 = 0.6811	0.6721
x2 = 0.7823	0.767
x2 = 0.8482	0.8337
x2 = 0.9067	0.8949
x2 = 0.9571	0.9476

CC(=O)O + CCOC(C)=O
viscosity [mPa·s], 101 kPa
Conditions	298.15 K	313.15 K
x1 = 0.1049	0.459	–
x1 = 0.207	0.4949	–
x1 = 0.3037	0.5331	–
x1 = 0.399	0.5762	–
x1 = 0.4985	0.6289	–
x1 = 0.5996	0.689	–
x1 = 0.6988	0.7668	–
x1 = 0.8011	0.859	–
x1 = 0.8742	0.943	–
x2 = 0.102	0.97	0.791
x2 = 0.2035	0.867	0.707
x2 = 0.3037	0.771	0.634
x2 = 0.4101	0.697	0.579
x2 = 0.4979	0.644	0.538
x2 = 0.6006	0.582	0.488
x2 = 0.6962	0.543	0.454
x2 = 0.7971	0.499	0.419
x2 = 0.9048	0.46	0.388

ClCCCl + CCOC(C)=O
303.15 K, 101.3 kPa
Conditions	viscosity [mPa·s]
x2 = 0.099	0.679
x2 = 0.2036	0.6354
x2 = 0.3005	0.602
x2 = 0.3976	0.5686
x2 = 0.4996	0.5353
x2 = 0.6025	0.5057
x2 = 0.6983	0.4784
x2 = 0.7998	0.4505
x2 = 0.9034	0.4236

C1CCC2=[NH+]CCCN2CC1.c1c[n-]cn1 + CN(C)C=O
298.15 K, 100 kPa
Conditions	viscosity [mPa·s]
x1 = 0.0998	1.496
x1 = 0.1996	2.353
x1 = 0.2995	3.64
x1 = 0.3994	5.34
x1 = 0.4994	7.345
x1 = 0.5994	10.26
x1 = 0.6995	14.27
x1 = 0.7996	19.37
x1 = 0.8998	25.32

CCCC[n+]1ccn(C)c1.N[C@@H](CCC(=O)O)C(=O)[O-] + CO
Conditions	viscosity [mPa·s]
313.15 K, 101 kPa, x1 = 0.7005	19.95

ClCCCl + CO
viscosity [mPa·s], 101 kPa
Conditions	x2 = 0.1568	x2 = 0.2369	x2 = 0.4217	x2 = 0.5374	x2 = 0.6221	x2 = 0.6906	x2 = 0.7982	x2 = 0.8393	x2 = 0.912
303.15 K	0.6585	0.6407	0.6125	0.6032	0.5936	0.5824	0.5696	0.5617	0.5488
313.15 K	0.5772	0.5596	0.5318	0.5227	0.5094	0.5005	0.4915	0.4852	0.4762
323.15 K	0.5169	0.499	0.4709	0.4587	0.4506	0.4422	0.4323	0.4255	0.4199

ClCCl + CO
303.15 K, 101.3 kPa
Conditions	viscosity [mPa·s]
x1 = 0.0146	0.5071
x2 = 0.0752	0.3905
x2 = 0.1326	0.3907
x2 = 0.1509	0.3917
x2 = 0.2315	0.3988
x2 = 0.3029	0.4078
x2 = 0.374	0.42
x2 = 0.407	0.4262
x2 = 0.5161	0.4475
x2 = 0.6525	0.4738
x2 = 0.7656	0.4932
x2 = 0.8581	0.5043
x2 = 0.9182	0.5081
x2 = 0.9595	0.5087
